Legend:
HCT-15 = assay: NCI five-dose assay; format: cell-based; conditions: Colon Cancer HCT-15
HL-60(TB) = assay: NCI five-dose assay; format: cell-based; conditions: Leukemia HL-60(TB)
[1] = Homo sapiens, read-out: GI50 Concentration/Cell Line

Question: `COC(=O)C=C1SC(=NNC(=O)c2cc3ccc2CCc2ccc(cc2)CC3)N(c2ccccc2)C1=O` [Compound 3a] was tested. Which “TGI Concentration/Cell Line” value (HCT-15) did it give?
Answer: The value was 4.05 µM.

Question: And the LC50 (HCT-15; Homo sapiens)?
Answer: The LC50 was 8.76 µM.

Question: What about the GI50 (HCT-15; [1]) of the same compound?
Answer: The GI50 was 1.87 µM.

Question: What about the GI50 (HL-60(TB); [1]) of the same compound?
Answer: Its GI50 is 2.7 µM.

Question: And the CC50 (HL-60(TB); Homo sapiens, read-out: LC50 (the source's name))?
Answer: The CC50 was > 100 µM.

Question: And the “TGI Concentration/Cell Line” value (HL-60(TB))?
Answer: Its value is >100 µM.
